Assay results published in PubChem BioAssay (NCI).
In brackets after ≈: the same amount, converted by molar mass.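 Dose response: 5 concentrations. Exposure: 48 h. Format: 96-well plates. Endpoint: linear interpolation; highest concentration if not reached. Here, GI50 denotes the concentration required for 50% inhibition of growth. TGI marks complete inhibition of growth.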

How the values were obtained:
Assay in all cases: NCI-60 cell line screen, 48 h
DMS 273 small cell lung = system: DMS 273 small cell lung
HCC-2998 colon = system: HCC-2998 colon
HOP-62 NSCLC = system: HOP-62 NSCLC
IGROV1 ovarian = system: IGROV1 ovarian
KM20L2 colon = system: KM20L2 colon
LOX IMVI melanoma = system: LOX IMVI melanoma
NCI-H460 lung = system: NCI-H460 lung
NCI-H522 lung = system: NCI-H522 lung
NCI/ADR-RES ovarian = system: NCI/ADR-RES ovarian
OVCAR-8 ovarian = system: OVCAR-8 ovarian
RXF 393 renal = system: RXF 393 renal
XF 498 CNS = system: XF 498 CNS
ACHN renal = system: ACHN renal
CAKI-1 renal = system: CAKI-1 renal
M14 melanoma = system: M14 melanoma
MDA-MB-435 = system: MDA-MB-435
SR leukemia = system: SR leukemia

Structure (SMILES): O=C(O)CCC(NC(=O)c1ccc(Nc2cnc3cc(C(F)(F)F)ccc3n2)cc1)C(=O)O (stereo not given)
- TGI (DMS 273 small cell lung): > 100 µM
- TGI (HCC-2998 colon): > 100 µM
- TGI (HOP-62 NSCLC): > 100 µM
- TGI (IGROV1 ovarian): > 100 µM
- TGI (KM20L2 colon): > 100 µM
- TGI (LOX IMVI melanoma): > 100 µM
- TGI (NCI-H460 lung): > 100 µM
- TGI (NCI-H522 lung): > 100 µM
- TGI (NCI/ADR-RES ovarian): > 100 µM
- TGI (OVCAR-8 ovarian): > 100 µM
- TGI (RXF 393 renal): > 100 µM
- TGI (XF 498 CNS): > 100 µM

Structure (SMILES): O=Cc1cn(CCCCCCCCn2cc(C=O)c3ccccc32)c2ccccc12
- TGI (ACHN renal): > 10 µM
- TGI (CAKI-1 renal): > 10 µM
- TGI (HCC-2998 colon): > 10 µM
- TGI (HOP-62 NSCLC): > 10 µM
- TGI (IGROV1 ovarian): > 10 µM
- TGI (LOX IMVI melanoma): > 10 µM
- TGI (M14 melanoma): > 10 µM
- TGI (MDA-MB-435): > 10 µM
- TGI (NCI-H460 lung): > 10 µM
- TGI (NCI-H522 lung): > 10 µM
- TGI (NCI/ADR-RES ovarian): > 10 µM
- TGI (OVCAR-8 ovarian): > 10 µM
- TGI (RXF 393 renal): > 10 µM
- TGI (SR leukemia): > 10 µM

Structure (SMILES): ICC1CCCO1 (stereo not given)
- TGI (ACHN renal): > 100 µM
- TGI (CAKI-1 renal): > 100 µM
- TGI (DMS 273 small cell lung): > 100 µM
- TGI (HCC-2998 colon): > 100 µM
- TGI (IGROV1 ovarian): > 100 µM
- TGI (KM20L2 colon): > 100 µM
- TGI (LOX IMVI melanoma): > 100 µM
- TGI (M14 melanoma): > 100 µM
- TGI (NCI-H460 lung): > 100 µM
- TGI (OVCAR-8 ovarian): > 100 µM
- TGI (RXF 393 renal): > 100 µM
- TGI (SR leukemia): > 100 µM
- TGI (XF 498 CNS): > 100 µM

Structure (SMILES): CCN(CC)CCNc1ccc2ncn3c4ccc(OC)cc4c(=O)c1c23
- TGI (ACHN renal): 19 µM
- TGI (CAKI-1 renal): 21 µM
- TGI (DMS 273 small cell lung): 14.9 µM
- TGI (HCC-2998 colon): 13.7 µM
- TGI (HOP-62 NSCLC): 20.3 µM
- TGI (IGROV1 ovarian): 28.1 µM
- TGI (KM20L2 colon): 8.76 µM
- TGI (LOX IMVI melanoma): 4.68 µM
- TGI (M14 melanoma): 11.7 µM
- TGI (MDA-MB-435): 18.6 µM
- TGI (NCI-H460 lung): 5.52 µM
- TGI (NCI-H522 lung): 21.4 µM
- TGI (NCI/ADR-RES ovarian): 16.1 µM
- TGI (OVCAR-8 ovarian): 11.8 µM
- TGI (RXF 393 renal): 7.69 µM
- TGI (SR leukemia): > 22.7 µM
- TGI (XF 498 CNS): 25.1 µM

Structure (SMILES): O=C(NN1C(=O)CS(=O)(=O)C1c1ccc(Cl)c(Cl)c1)c1ccncc1 (stereo not given)
- TGI (CAKI-1 renal): > 100 µM
- TGI (DMS 273 small cell lung): > 31.6 µM
- TGI (HCC-2998 colon): > 100 µM
- TGI (HOP-62 NSCLC): > 100 µM
- TGI (IGROV1 ovarian): > 100 µM
- TGI (KM20L2 colon): > 100 µM
- TGI (LOX IMVI melanoma): > 100 µM
- TGI (NCI-H460 lung): > 100 µM
- TGI (NCI-H522 lung): > 100 µM
- TGI (NCI/ADR-RES ovarian): > 100 µM
- TGI (OVCAR-8 ovarian): > 100 µM
- TGI (RXF 393 renal): > 100 µM
- TGI (XF 498 CNS): > 100 µM

Structure (SMILES): CC(=O)[O-].CC(=O)[O-].O=C(N/N=C/c1cc(Cl)cc(Cl)c1[OH2+])c1ccncc1.[Mn+2]
- TGI (ACHN renal): 13.8 µM
- TGI (HCC-2998 colon): 17 µM
- TGI (HOP-62 NSCLC): 68 µM
- TGI (IGROV1 ovarian): 10.7 µM
- TGI (KM20L2 colon): 16 µM
- TGI (LOX IMVI melanoma): 15.2 µM
- TGI (M14 melanoma): 13.6 µM
- TGI (NCI-H460 lung): 15.8 µM
- TGI (NCI-H522 lung): 14.8 µM
- TGI (OVCAR-8 ovarian): 10.1 µM
- TGI (RXF 393 renal): 20.7 µM
- TGI (SR leukemia): 4.4 µM

Structure (SMILES): Cc1cc(O)c2c(c1)C(=O)c1c(c(O)cc(O)c1-c1c(O)cc(O)c3c1C(=O)c1cc(C)cc(O)c1C3=O)C2=O
- TGI (CAKI-1 renal): 51.4 µM
- TGI (DMS 273 small cell lung): 30.3 µM
- TGI (HCC-2998 colon): 35.2 µM
- TGI (HOP-62 NSCLC): 32.3 µM
- TGI (IGROV1 ovarian): 52.6 µM
- TGI (KM20L2 colon): 52.2 µM
- TGI (LOX IMVI melanoma): 50.2 µM
- TGI (NCI-H460 lung): 55.3 µM
- TGI (NCI-H522 lung): 59 µM
- TGI (NCI/ADR-RES ovarian): 152 µM
- TGI (OVCAR-8 ovarian): 47 µM
- TGI (RXF 393 renal): 76.5 µM
- TGI (XF 498 CNS): 53.4 µM

Structure (SMILES): Cc1nc2nc(C)n(CCN3CCOCC3)c(=O)c2c(-c2cccc([N+](=O)[O-])c2)c1C(=O)CCCCCCCCCCN1CCC(c2ccccc2)(c2ccccc2)CC1
- GI50 (HCC-2998 colon): 2.37 µg/mL (≈ 2.91 µM)
- TGI (HCC-2998 colon): 4.56 µg/mL
- GI50 (HOP-62 NSCLC): 2.07 µg/mL (≈ 2.55 µM)
- TGI (HOP-62 NSCLC): 4.06 µg/mL
- GI50 (MDA-MB-435): 1.9 µg/mL (≈ 2.34 µM)
- TGI (MDA-MB-435): 3.79 µg/mL

Structure (SMILES): CC1(c2ccccc2)O[C@@H]2C[C@H]3[C@@H]4CCC5=CC(=O)C=C[C@]5(C)[C@@]4(F)[C@@H](O)C[C@]3(C)[C@]2(C(=O)CO)O1 (stereo not given in full)
- TGI (ACHN renal): 34.8 µM
- TGI (CAKI-1 renal): 56 µM
- TGI (HCC-2998 colon): 33.3 µM
- TGI (HOP-62 NSCLC): 29.2 µM
- TGI (IGROV1 ovarian): 38.7 µM
- TGI (LOX IMVI melanoma): 47.1 µM
- TGI (M14 melanoma): 30.6 µM
- TGI (MDA-MB-435): 33.1 µM
- TGI (NCI-H460 lung): 29.8 µM
- TGI (NCI-H522 lung): 25 µM
- TGI (NCI/ADR-RES ovarian): 36 µM
- TGI (OVCAR-8 ovarian): 41.7 µM
- TGI (RXF 393 renal): 36.3 µM
- TGI (SR leukemia): 76.9 µM

Structure (SMILES): CCOP(=O)(C/C=C/Cn1ncc(=O)[nH]c1=O)OCC
- TGI (ACHN renal): > 100 µM
- TGI (CAKI-1 renal): > 100 µM
- TGI (HCC-2998 colon): > 100 µM
- TGI (HOP-62 NSCLC): > 100 µM
- TGI (IGROV1 ovarian): > 100 µM
- TGI (LOX IMVI melanoma): > 100 µM
- TGI (M14 melanoma): > 100 µM
- TGI (MDA-MB-435): > 100 µM
- TGI (NCI-H460 lung): > 100 µM
- TGI (NCI-H522 lung): > 100 µM
- TGI (NCI/ADR-RES ovarian): > 100 µM
- TGI (OVCAR-8 ovarian): > 100 µM
- TGI (RXF 393 renal): > 100 µM

Structure (SMILES): C=C1CC(OC)(C(OC)C(=O)N[C@H]2OCO[C@H]3C2O[C@H](C[C@@H](COC)OC)C(C)(C)C3OC)O[C@H](C)[C@@H]1C (stereo not given in full)
- TGI (CAKI-1 renal): 3.6 µM
- TGI (DMS 273 small cell lung): 3.79 µM
- TGI (HOP-62 NSCLC): 8.46 µM
- TGI (IGROV1 ovarian): 12.3 µM
- TGI (KM20L2 colon): > 47 µM
- TGI (LOX IMVI melanoma): > 47 µM
- TGI (NCI-H460 lung): 5.96 µM
- TGI (NCI/ADR-RES ovarian): > 47 µM
- TGI (OVCAR-8 ovarian): 6.89 µM
- TGI (RXF 393 renal): 5.38 µM
- TGI (XF 498 CNS): 2.54 µM

Structure (SMILES): Cc1cc(=O)oc2c1cc1ccc3cccc4ccc2c1c34
- TGI (ACHN renal): > 100 µM
- TGI (CAKI-1 renal): > 100 µM
- TGI (IGROV1 ovarian): > 100 µM
- TGI (KM20L2 colon): > 100 µM
- TGI (LOX IMVI melanoma): > 100 µM
- TGI (M14 melanoma): > 100 µM
- TGI (NCI-H460 lung): > 100 µM
- TGI (NCI-H522 lung): > 100 µM
- TGI (OVCAR-8 ovarian): > 100 µM

Structure (SMILES): CN1CCC2(c3ccccc3)CC(=O)/C(=C/c3ccc(Cl)c(Cl)c3)C1C2 (stereo not given)
- TGI (ACHN renal): 3.17 µM
- TGI (CAKI-1 renal): 13.8 µM
- TGI (HOP-62 NSCLC): 12.3 µM
- TGI (IGROV1 ovarian): 4.19 µM
- TGI (LOX IMVI melanoma): 3.34 µM
- TGI (M14 melanoma): 8.59 µM
- TGI (MDA-MB-435): 5.14 µM
- TGI (NCI-H460 lung): 5.94 µM
- TGI (NCI-H522 lung): 3.6 µM
- TGI (NCI/ADR-RES ovarian): 11 µM
- TGI (OVCAR-8 ovarian): 4.64 µM
- TGI (RXF 393 renal): 7.07 µM
- TGI (SR leukemia): 4.74 µM
